The values that follow come from PubChem BioAssay (NCI).

Some test systems named below: SNB-75 CNS; MDA-MB-231 breast; HOP-92 NSCLC; SF-295 CNS; NCI-H226 lung; SK-OV-3 ovarian; HCT-15 colon; ACHN renal; HCC-2998 colon; SF-268 CNS.
What all share (test): growth of human tumour cells (NCI), 48 h

The structures appear in SMILES notation.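 Method: 48-hour compound exposure of cells in 96-well plates, five concentrations, linear interpolation of endpoints. At the GI50, growth is halved. The concentration for full growth arrest is given as TGI.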 Some results are limits rather than exact numbers.

With `C[C@H](CCC1=NCCN1)[C@H]1CC[C@H]2[C@@H]3CC[C@@H]4C[C@H](O)CC[C@]4(C)[C@H]3C[C@H](O)[C@]12C`, the TGI with SNB-75 CNS was found to be 13.5 µM; with MDA-MB-231 breast, 34 µM; with HOP-92 NSCLC, 30.9 µM; with SF-295 CNS, 29 µM; with NCI-H226 lung, 31 µM; in the assay with SK-OV-3 ovarian it was 31.9 µM. Besides, the TGI with HCT-15 colon was > 100 µM; with ACHN renal, 30.5 µM; in the assay on HCC-2998 colon it was 27.6 µM; with SF-268 CNS, 20.5 µM.
For `O=C1O[C@]2(c3ccccc3)C(c3ccccc3)=C[C@]2(C(=O)c2ccccc2)C1=O`, the TGI in the assay with SNB-75 CNS is > 100 µM; in the assay on MDA-MB-231 breast, 99.1 µM; with HOP-92 NSCLC it was 64.8 µM; with SF-295 CNS, > 100 µM; in the assay with NCI-H226 lung, 98.6 µM; with SK-OV-3 ovarian it was > 100 µM. Moreover, the TGI is > 100 µM in the assay with HCT-15 colon, > 100 µM with ACHN renal, 39.2 µM in the assay with HCC-2998 colon and > 100 µM in the assay with SF-268 CNS.
`O=c1[nH]c2ccccc2c2oc(-c3ccccc3)nc12`: the TGI in the assay on SNB-75 CNS is 45.8 µM; in the assay with MDA-MB-231 breast, 38.1 µM; in the assay with HOP-92 NSCLC, 56.7 µM; in the assay on SF-295 CNS it was 57.6 µM; in the assay with NCI-H226 lung, > 100 µM; in the assay with SK-OV-3 ovarian it was > 100 µM. Moreover, the TGI in the assay with HCT-15 colon was > 100 µM; with ACHN renal it was > 100 µM; with HCC-2998 colon, > 100 µM; in the assay on SF-268 CNS it was 71.3 µM.
With `NC(=O)NCCCC(NC(=O)OCCCCCn1ccc(=O)[nH]c1=O)C(=O)O` (configuration not stated), the TGI in the assay on SNB-75 CNS, in the assay on MDA-MB-231 breast, in the assay on HOP-92 NSCLC, in the assay on SF-295 CNS, with NCI-H226 lung and with SK-OV-3 ovarian was > 100 µM each time. The TGI with HCT-15 colon, in the assay on ACHN renal, in the assay with HCC-2998 colon and in the assay on SF-268 CNS was > 100 µM throughout.
For the molecule `O=C(Nc1cccc(-n2ccc3c(NC(=O)c4ccccc4)nccc32)c1)c1cc(N2CCOCC2)cc(C(F)(F)F)c1`, the GI50 was 0.0362 µM in the assay on SNB-75 CNS; 0.245 µM in the assay with MDA-MB-231 breast; 0.3 µM in the assay with HOP-92 NSCLC; 0.039 µM in the assay with SF-295 CNS; 0.36 µM in the assay on NCI-H226 lung; 0.142 µM with SK-OV-3 ovarian. The GI50 in the assay with HCT-15 colon was 0.0395 µM; with ACHN renal, 0.116 µM; with HCC-2998 colon, 0.462 µM; in the assay with SF-268 CNS, 0.264 µM. Moreover, the TGI is 0.678 µM in the assay with SNB-75 CNS; 0.651 µM in the assay with MDA-MB-231 breast; > 26.2 µM in the assay with HOP-92 NSCLC; 2.16 µM in the assay on SF-295 CNS; > 100 µM with SK-OV-3 ovarian; > 100 µM in the assay with HCC-2998 colon. Also, the TGI with SF-268 CNS is > 100 µM.
Regarding `N#Cc1nc(/C=C/c2ccccc2)oc1N`, the TGI with SNB-75 CNS, in the assay with MDA-MB-231 breast, with HOP-92 NSCLC, in the assay with SF-295 CNS, in the assay on NCI-H226 lung and with SK-OV-3 ovarian was > 100 µM each time. Further, the TGI in the assay on HCT-15 colon, in the assay on ACHN renal, with HCC-2998 colon and with SF-268 CNS was > 100 µM each time.
For the molecule `O=[N+]([O-])c1ccc(Cl)cc1C=NC12CC3CC(CC(C3)C1)C2`, the TGI in the assay on SNB-75 CNS, in the assay on MDA-MB-231 breast, in the assay on HOP-92 NSCLC, in the assay with SF-295 CNS, with NCI-H226 lung and in the assay on SK-OV-3 ovarian was > 100 µM throughout. For the same molecule, the TGI with HCT-15 colon, in the assay on ACHN renal, with HCC-2998 colon and in the assay on SF-268 CNS was > 100 µM in each case.
For `CC(=O)NC1=CC(=O)c2cc(C)cc(O)c2C1=O`, the TGI with SNB-75 CNS was 37 µM; in the assay with MDA-MB-231 breast, 24.7 µM; with HOP-92 NSCLC it was 22.7 µM; with SF-295 CNS, 39.4 µM; in the assay on NCI-H226 lung it was 38.5 µM; in the assay on SK-OV-3 ovarian, > 83.5 µM. Further, the TGI was 13.8 µM in the assay with HCT-15 colon, 23 µM in the assay on ACHN renal, 5.69 µM in the assay on HCC-2998 colon and 22.6 µM in the assay with SF-268 CNS.
Turning to `COC(=O)CCN(CCC(=O)OC)C1CC1`, the TGI in the assay with SNB-75 CNS, in the assay on MDA-MB-231 breast, with HOP-92 NSCLC, with SF-295 CNS, with NCI-H226 lung and in the assay on SK-OV-3 ovarian was > 100 µM in each case. For the same molecule, the TGI in the assay on HCT-15 colon, in the assay with ACHN renal, in the assay with HCC-2998 colon and in the assay with SF-268 CNS was > 100 µM throughout.
With `CC(=N\N=C\c1ccccn1)/C(C)=N/N=C(C)/C(C)=N/N=C(C)/C(C)=N/N=C/c1ccccn1`, the TGI in the assay with SNB-75 CNS, in the assay with MDA-MB-231 breast, in the assay on HOP-92 NSCLC, in the assay on SF-295 CNS, in the assay with NCI-H226 lung and in the assay with SK-OV-3 ovarian was > 100 µM each time. In addition, the TGI in the assay on HCT-15 colon, in the assay on ACHN renal, in the assay on HCC-2998 colon and in the assay on SF-268 CNS was > 100 µM in each case.
For `O=C(OCc1ccccc1)N1c2cc([N+](=O)[O-])ccc2C(=O)N2CCC[C@H]2C1O` (some centres not stated), the TGI in the assay with SNB-75 CNS, with MDA-MB-231 breast, in the assay on HOP-92 NSCLC, in the assay with SF-295 CNS, in the assay on NCI-H226 lung and in the assay on SK-OV-3 ovarian was > 100 µM each time. The TGI in the assay with HCT-15 colon, in the assay on ACHN renal, in the assay with HCC-2998 colon and in the assay on SF-268 CNS was > 100 µM throughout.
On to `CCOC(=O)C(NCc1cccc(C(F)(F)F)c1)(NC(=O)c1ccccc1)C(F)(F)F` (configuration not stated), for which the TGI in the assay with SNB-75 CNS was 93.3 µM; with MDA-MB-231 breast it was 29.9 µM; with HOP-92 NSCLC, 64.7 µM; in the assay with SF-295 CNS, > 100 µM; in the assay on NCI-H226 lung it was > 100 µM; in the assay with SK-OV-3 ovarian, > 100 µM. In addition, the TGI with HCT-15 colon was > 100 µM; in the assay with ACHN renal, 79.5 µM; with HCC-2998 colon, > 100 µM; in the assay on SF-268 CNS, > 100 µM.
On to `COc1cc(C(SCc2ccccc2)SCc2ccccc2)ccc1O`, for which the TGI with SNB-75 CNS, in the assay with MDA-MB-231 breast, in the assay on HOP-92 NSCLC, in the assay with SF-295 CNS, in the assay on NCI-H226 lung and in the assay with SK-OV-3 ovarian was > 10 µM throughout. In addition, the TGI with HCT-15 colon, in the assay with ACHN renal, in the assay with HCC-2998 colon and with SF-268 CNS was > 10 µM each time.
In the case of `CCC(C)C1(O)OC2CC3(C)OC(=CC3=O)/C(C)=C\C3OC(=O)C1(C)C32` (configuration not stated), the TGI in the assay with SNB-75 CNS is > 100 µM; in the assay on MDA-MB-231 breast, 41.2 µM; with HOP-92 NSCLC, 31.3 µM; with SF-295 CNS it was 60.9 µM; with NCI-H226 lung, 63 µM; with SK-OV-3 ovarian, > 100 µM. Besides, the TGI was 17.3 µM in the assay on HCT-15 colon, 23.5 µM in the assay on ACHN renal, 30.1 µM in the assay on HCC-2998 colon and > 100 µM in the assay with SF-268 CNS.
As for `CC(C)CCC/C(CBr)=C(\Cl)CCl`, the TGI in the assay with SNB-75 CNS amounted to 4.71 µM; with MDA-MB-231 breast, 8.34 µM; in the assay with HOP-92 NSCLC it was 4.54 µM; with SF-295 CNS, 26.5 µM; in the assay on NCI-H226 lung it was 25.7 µM; with SK-OV-3 ovarian, 22.3 µM. The TGI with HCT-15 colon was determined as 11.4 µM; with ACHN renal it was 23.3 µM; with HCC-2998 colon it was 21 µM; with SF-268 CNS, 9.89 µM.
Turning to `CC(C)(NC1=NCCO1)c1ccccc1`, the TGI with SNB-75 CNS, in the assay with MDA-MB-231 breast, in the assay on HOP-92 NSCLC, with SF-295 CNS, in the assay on NCI-H226 lung and in the assay with SK-OV-3 ovarian was > 100 µM in each case. Further, the TGI in the assay on HCT-15 colon, in the assay with ACHN renal, in the assay with HCC-2998 colon and with SF-268 CNS was > 100 µM throughout.
With `CC(C)C(C/C=C1\CC(CO)(COC(=O)CC(C(C)C)C(C)C)OC1=O)C(C)C` (configuration not stated), the TGI with SNB-75 CNS came to 22.9 µM; with MDA-MB-231 breast, 27.2 µM; with HOP-92 NSCLC it was 16.6 µM; with SF-295 CNS, 20.2 µM; in the assay on NCI-H226 lung, 24.4 µM; in the assay on SK-OV-3 ovarian, 32.1 µM. The TGI was found to be 34.9 µM in the assay with HCT-15 colon, 22.5 µM in the assay on ACHN renal, 18.7 µM in the assay with HCC-2998 colon and 27.6 µM with SF-268 CNS.
